Values of other authors as cited in US20170071966A1, “PHARMACEUTICAL COMPOSITION” (priority 2014, published 2017).
Read-outs that look alike come from different tables or passages of the source.

Columns and labels:
[1] = Nakane et al. 1996
[2] = Zhang et al. 1994
[3] = Senel et al. 1994
[4] = a few subjects, gram quantities
[5] = mice, drinking water 10, 20 and 30 mg/ml (4000, 8000, 12000 mg/kg body weight), 19-day experiment
[6] = system: mice exposed to whole body radiation; conditions: beta-carotene alone, given orally before or after whole body radiation
[7] = not given; remark: listed apart in the source
[8] = gerbils, 1% in the food for 8 weeks

In the case of C[C@H](CCC(=O)[O-])[C@H]1CC[C@H]2[C@@H]3[C@H](O)C[C@@H]4C[C@H](O)CC[C@]4(C)[C@H]3C[C@H](O)[C@]12C.[Na+] [sodium cholate, Sodium cholate], the “absorption of luteinizing hormone releasing hormone” value [1] is given as “increased the absorption”, the “buccal absorption of insulin” value [2] is given as “increased the buccal absorption” and the “increase of mucosal permeability of fluorescein isothiocyanate” value [3] is given as 100-200 times.

In the case of Nc1nc2c(ncn2[C@@H]2O[C@H](COP(=O)(O)O)[C@@H](O)[C@H]2O)c(=O)[nH]1 [guanosine monophosphate, Guanosine Monophosphate], the ill effects [4] is given as “no known ill effects”, the water solubility is given as “highly water-soluble” and the ill effects [5] is given as “no obvious ill effects”.

In the case of CC1=C(/C=C/C(C)=C/C=C/C(C)=C/C=C/C=C(C)/C=C/C=C(C)/C=C/C2=C(C)CCCC2(C)C)C(C)(C)CCC1 [beta-carotene], the survival from radiation [6] is listed as “enhance survival”, the “risk of hypervitaminosis A” value ([7]; high beta-carotene doses) is listed as “no risk of hypervitaminosis A” and the long-term safety ([7]; patients with erythropoietic protoporphyria, 180 to 300 mg per day) is listed as “safe at the highest daily dose for a lifetime”. For the same compound, the acute toxicity ([7]; surveillance over the decades it was a prescription drug) was “no known acute toxicity”.

In the case of Nc1nc2c(ncn2[C@@H]2O[C@H](CO)[C@@H](O)[C@H]2O)c(=O)[nH]1 [guanosine], the water solubility is listed as “slightly water-soluble” and the deleterious effects [8] is listed as “no obvious deleterious effects”.
